Reference: patent publication US5459160A, “Iridoid derivatives and the use thereof as a drug” (Tsumura & Co., priority 1990, dated 1995)

Tests used:
bile secretion = assay: Cholagogic action, bile secretion (Experimental Example 5); format: in vivo, male Wistar rats; conditions: intraduodenal
Experimental: After male Wistar rats 7 weeks old were fasted for 24 hours, they were anesthetized by the interperitoneal administration of 1.25 g/kg (volume 2 m.iota./kg) of urethane. A polyethylene canula (SP-10, a product of Natsume Seisakusho) was inserted into a bile duct and after the bile was caused to flow out for 30 minutes, the bile was collected in the cource of 1 hour. Thereafter, each test drug was suspended or dissolved in a 1% aqueous Tween-80 solution, and was administered into the duodenum at a rate of 5 m.iota./kg. Furthermore, the bile was collected every hour in the course of five hours, and its weight was measured. Only a 1% Tween-80 solution was given as a control.
The results are tabulated in Tables 6, 7, 8, 9 and 10, wherein the bile secretion amount every hour was represented by a percentage with the bile secretion amount (mg) one hour before the dose of the test drug being 100.

[1] = tested on: cholesterol synthesis in liver slices; assay: Cholesterol synthesis from [1-14C] acetic acid in liver slices (Experimental Example 2); format: cell-based, male Wistar rats; conditions: drug final concentration 0.1-1.0 mM, 37° C., 120 minutes; control 100; Table 2
Experimental: Liver slices (0.5 mm) were prepared from male Wistar rats 5 weeks old acclimated for 10 days in a bright/dark inversion raising chamber (bright period: 8:00 p.m.-8:00 a.m.). […] Incubation was carried out at 37° C. for 120 minutes in 95% oxygen and 5% carbon dioxide. The reaction was stopped by adding 1 m.iota. of 15% potassium hydroxide/ethanol, and saponification was carried out at 80° C. for 2 hours. The sterol fraction was extracted by petroleum ether and was evaporated to driness. Thereafter, 1 m.iota. of acetone/ethanol (1:1) and 1 m.iota. of 0.5% digitonine were added, and the mixture was left standing for a night at room temperature. The precipitate was collected by centrifugal separation and was washed with 2 m.iota. of acetone/ether (1:1). The precipitate was further centrifuged. After the supernatant was discarded, the precipitate was dissolved in methanol and its radioactivity was measured.

Acute toxicity test = conditions: mouse, in vivo, ip; male S.P.P. mice, abdominally administered; Table 11
Experimental: The acute toxicity test was carried out by abdominally administering each test drug to male S.P.P. mice and determining an LD50 value.

hyperlipemia [2] = assay: Anti-hyperlipemia test in rats on high fat food (Experimental Example 4); format: in vivo, Male Wistar rats; conditions: peroral once a day, two weeks, control 100, Table 5
Excerpt: Male Wistar rats 6.5 weeks old were allowed to freely intake a high fat food (0.5% cholesterol, 1.0% cholic acid, 20.0% casein, 50.5% cane sugar, 12.0% hardened coconut oil, 4.0% cellulose, 4.0% mineral mixture, 0.5% vitamine mixture, 7.5% white fish meal) in the course of two weeks so as to cause the outbreak of hyperlipemia. The dose of the drug was started simultaneously with the application of the high fat food, and was perorally given once a day through a stomach tube until the end of the experiment. The drugs were all suspended in a cane sugar fatty acid ester and were administered. The oily compounds were adjusted in advance to 100 mg/m.iota. by diethyl ether. A suitable amount was collected at the time of the dose and after diethyl ether was evaporated and removed, it was suspended in a cane sugar fatty acid ester (1% ryoto sugar ester) and was then given. After the final dose of the drug, the rats were fasted for about 18 hours, and the blood was sampled to measure the blood serum lipid. The blood serum lipid was measured by using a TBA-380 bio-chemical analyzer (a product of Toshiba Medical Co.,) unless a particular hindrance occurred.

hyperlipemia [3] = assay: Anti-hyperlipemia test in rats on high fat food (Experimental Example 1); format: in vivo, Male Wistar rats; conditions: peroral once a day, two weeks, control 100, Table 1
Excerpt: Male Wistar rats 6.5 weeks old were allowed to freely intake a high fat food (containing 1% of cholesterol, 0.5% of sodium cholate, 12% of beef tallow and 20% of standard chow) in the cource of two weeks, to thus cause an outbreak of hyperlipemia. The dose of the drug was started simultaneously with the application of the high fat food, and was perorally given once a day through a stomach tube until the end of the experiment. The drugs were all suspended in a cane sugar fatty acid ester and were administered. The oily compounds were adjusted in advance to 100 mg/m.iota. by diethyl ether. A suitable amount was collected at the time of the dose and after diethyl ether was evaporated and removed, it was suspended in a cane sugar fatty acid ester (1% ryoto sugar ester) and then given. After the final dose of the drug, the rats were fasted for about 18 hours, and the blood was sampled to measure the blood serum lipid. The blood serum lipid was measured by using a TBA-380 biochemical analyzer (a product of Toshiba Medical Co.,) unless a particular hindrance occurred.

[4] = 0-1 hour after dose, control 82.9, Table 10
[5] = 1-2 hour after dose, control 74.1, Table 10
[6] = 2-3 hour after dose, control 66.1, Table 10
[7] = 3-4 hour after dose, control 59.8, Table 10
[8] = 4-5 hour after dose, control 53.3, Table 10
[9] = 0-1 hour after dose, control 84.1, Table 8
[10] = 1-2 hour after dose, control 72.5, Table 8
[11] = 2-3 hour after dose, control 63.8, Table 8
[12] = 3-4 hour after dose, control 56.7, Table 8
[13] = 4-5 hour after dose, control 51.2, Table 8

SMILES	Bile secretion amount, percentage of the hour before dose (bile secretion; [4])	Bile secretion amount, percentage of the hour before dose (bile secretion; [5])	Bile secretion amount, percentage of the hour before dose (bile secretion; [6])	Bile secretion amount, percentage of the hour before dose (bile secretion; [7])	Bile secretion amount, percentage of the hour before dose (bile secretion; [8])	Relative amount of synthesized cholesterol (%) [1]	LD50 (Acute toxicity test)	Blood serum cholesterol (%) (hyperlipemia [2]; 10 mg/kg)	Blood serum cholesterol (%) (hyperlipemia [2]; 30 mg/kg)	Bile secretion amount, percentage of the hour before dose (bile secretion; [9])	Bile secretion amount, percentage of the hour before dose (bile secretion; [10])	Bile secretion amount, percentage of the hour before dose (bile secretion; [11])	Bile secretion amount, percentage of the hour before dose (bile secretion; [12])	Bile secretion amount, percentage of the hour before dose (bile secretion; [13])	Blood serum cholesterol (%) (hyperlipemia [3]; 10 mg/kg)	Blood serum triglyceride (%) (hyperlipemia [3]; 10 mg/kg)	Blood serum cholesterol (%) (hyperlipemia [3]; 30 mg/kg)	Blood serum triglyceride (%) (hyperlipemia [3]; 30 mg/kg)	also measured
COC(=O)C1=COC(=O)[C@@H]2[C@H](C)CC[C@H]12 [Definite Example 32, methyl (4aS, 7R, 7aR)-1,4a, 5,6,7,7a-hexahydro-7-methyl-1-oxocyclopenta[c]pyran-4-carboxylate]	110.7%	80.6%	66.2%	55.6%	49.6%	96.2%	–	–	–	–	–	–	–	–	–	–	–	–	–
COC(=O)C1=CO[C@@H](OC(C)=O)[C@H]2[C@@H]1CC1OCC12OC(C)=O (stereo partly drawn) [Definite Example 30, methyl (iS, 4aS, 7aS)-1,7-diacetoxy-6,7-(epoxymethano)-1,4a, 5,6,7,7a-hexahydrocyclopenta[c]pyran-4-carboxylate]	97.9%	83.1%	69.7%	61.0%	53.9%	50.1%	468 mg/kg	–	–	–	–	–	–	–	–	–	–	–	–
COC(=O)C1=COC(O)[C@@H]2C(C)=CC[C@H]12 (stereo partly drawn) [Definite Example 9, methyl (4aS, 7aS)-1,4a, 5,7a-tetrahydro-1-hydroxy-7-methylcyclopenta[c]pyran-4-carboxylate]	–	–	–	–	–	–	407 mg/kg	70.8%	62.8%	134.5%	90.9%	76.5%	66.7%	59.4%	93.6%	74.5%	59.3%	60.0%	–
COC(=O)C1=COC(O)[C@H]2[C@@H]1CC[C@@H]2C (stereo partly drawn) [Definite Example 4, methyl (4aS, 7S, 7aR)-1,4a, 5,6,7,7a-hexahydro-1-hydroxy-7-methylcyclopenta[c]pyran-4-carboxylate]	–	–	–	–	–	–	–	85.3%	75.0%	150.8%	93.7%	74.0%	63.9%	57.2%	73.3%	86.0%	75.4%	91.0%	Bile secretion amount, percentage of the hour before dose (bile secretion; 0-1 hour after dose, control 82.9, Table 6): 146.9%; Bile secretion amount, percentage of the hour before dose (bile secretion; 1-2 hour after dose, control 74.1, Table 6): 97.8%; Bile secretion amount, percentage of the hour before dose (bile secretion; 2-3 hour after dose, control 66.1, Table 6): 85.4%; Bile secretion amount, percentage of the hour before dose (bile secretion; 3-4 hour after dose, control 59.8, Table 6): 77.2%; Bile secretion amount, percentage of the hour before dose (bile secretion; 4-5 hour after dose, control 53.3, Table 6): 71.8%
CC(=O)O[C@@H]1OC=C(CO)[C@H]2CC=C(CO)[C@@H]12 [Definite Example 27, (1S, 4aS, 7aS)-1-acetoxy-4,7-bis(hydroxymethyl)-1,4a, 5,7a-tetrahydrocyclopenta[c]pyran]	98.3%	75.3%	59.0%	48.7%	43.5%	73.5%	473 mg/kg	–	–	–	–	–	–	–	–	–	–	–	–
